The values that follow come from patent US20150192564A1, “PROFILING REACTIVE OXYGEN, NITROGEN AND HALOGEN SPECIES” (ENZO LIFE SCIENCES, INC., C/O ENZO BIOCHEM, INC, priority 2008, published 2015).

Data set [1] has as its system HeLa cells. In words: Kinetic changes in levels of NO and ROS in HeLa cells, wide-field fluorescence microscopy (Example 3). The format is cell-based, Human. Particulars: 1 mM L-arginine; for time after treatment at which DAQ signal (NO) was detectable: 1 μM A23187, FIG. 5A; for NO levels (DAQ signal) / ROS production (FIGS. 5B and 5C): 10-60 min treatment; for NO levels (DAQ signal): 1 μM A23187, 0.2 mM antimycin A, 0.1 mM pyocyanin or combination, FIG. 5A; for ROS production (FIGS. 5B and 5C): 0.2 mM antimycin A, 0.1 mM pyocyanin. Here is the method: HeLa cells were cultured and plated as described in Example 1. On the day of the experiment, cells were loaded with 50 μM of DAQ, 1 l-1M of DCFDA and HE for 2 h, 37° C. and induced with different ROS and NO inducers (1 μM of A23187, 0.2 mM of antimycin A, 1 mM of L-arginine, 0.1 mM of pyocyanin or combination of L-arginine and pyocyanin) at 37° C. Samples for fluorescent microscopy were prepared after 10, 20, 30, 45 and 60 min of treatment as described in Example 1 and analyzed using an Olympus wide field fluorescent microscope (set of filters as described in the Table 2).

For data set [2] the following is noted: ROS-generating system: •OCl; cited from earlier work.
The conditions of data set [3]: ROS-generating system: •OH; cited from earlier work.
The conditions of data set [4]: ROS-generating system: NO; cited from earlier work.
The conditions of data set [5]: ROS-generating system: ONOO−; cited from earlier work.
For data set [6] the following is noted: ROS-generating system: 1O2; cited from earlier work.
For data set [7] the following is noted: ROS-generating system: ROO−; cited from earlier work.
The conditions of data set [8]: ROS-generating system: H2O2; cited from earlier work.
The conditions of data set [9]: ROS-generating system: O2•−; cited from earlier work.
For data set [10] the following is noted: cited from earlier work.
In a further data set the test system is cells. Particulars: cited from earlier work.
Data set [11] relates to HeLa cells. In words: Multiplexed ROS/RNS detection in HeLa cells by flow cytometry (Example 4). The class given is cell-based, Human. Particulars: for NO production (fluorescence of oxidized DAQ product in FL4): one hour treatment; for NO production (fluorescence of oxidized DAQ product in FL4) / effect of pretreatment on L-arginine-induced FL4 (NO) signal: FIG. 6 top panel. On the procedure: HeLa cells were cultured as described in Example 1. The day before the experiment, the cells were seeded in 6-well tissue culture dishes at a density of 5×10^5 cells per well. On the day of the experiment, the cells were loaded with 50 μM of DAQ, 1 l-1M of DCFDA and HE (solution in culture medium) for 2 h, 37° C. and induced with L-arginine, pyocyanin or their combination, as described in Example 1. To confirm specificity and selectivity of the staining, parallel samples were treated with NAG (general ROC inhibitor) and cPTIO (general NO scavenger and NOS inhibitor). After one hour treatment, the cells were washed with PBS, trypsinized and resuspended in 0.5 ml of PBS. After resuspension, the cells were immediately analyzed by flow cytometry using FAGS Calibur instrument (or any benchtop cytometer equipped with blue and red lasers could be used). Green fluorescence of oxidized DCF was detected in the FL1 channel (excitation with 488 nm blue laser, emission detection with 530/30 BP filter), red fluorescence of DHE was detected in the FL2 channel (excitation with 488 nm blue laser, emission detection with 585/42 BP filter). Fluorescence of oxidized DAQ product was detected in the FL4 channel (excitation with 635 nm red laser, emission detection with 670 LP filter). There was substantial overlap between the oxidized dye spectra; therefore, compensation was required. For compensation purposes, singly stained samples were prepared and compensation was performed using standard protocols.
A general note: Flow cytometry measures light scatter and fluorescence of single cells or particles in a stream.

Data set [12] deals with HeLa cells. In words: ROS/RNS production in HeLa cells, triple staining DAQ/DCFDA/HE, wide-field fluorescence microscopy (Example 1). The class given is cell-based, Human. Particulars: for effect of pretreatment on ROS production induced by pyocyanin: NAG 5 mM, 3C; for effect of pretreatment on green fluorescence upon combination treatment with L-arginine and pyocyanin: HeLa cells pretreated, ebselen 20 μM, 3D. On the procedure: Human cervical adenocarcinoma epithelial cell line HeLa was obtained from ATCC (ATTC, Manassas, Va.) and was routinely cultured in Dulbecco's modified eagle medium with low glucose (Sigma-Aldrich, St. Louis, Mo.), supplemented with 10% fetal bovine serum heat inactivated (ATCC) and 100 U/ml penicillin, […] streptomycin (Sigma). Cell cultures were maintained in an incubator at 37° C., with 5% CO2 atmosphere. Three ROS/RNS fluorescent probes were dissolved in anhydrous DMF at the following concentrations: DAQ-20 mM (a 400× stock solution), DCFDA-5 mM (a 5000× stock solutions), DHE-5 mM (a 5000× stock solution). Anhydrous organic solvents should be used with DMF being the first choice, since DMSO is a hydroxyl radical scavenger and its presence may affect ROS/RNS production in cellular systems. Stock solutions of the dyes were aliquoted and stored at −20° C. The day before the experiment, HeLa cells were seeded on multiwell microscope slides (Gel-Line™ Brand, Portsmouth, N.H.) at a density of 2×10^4 cells per well. On the next day, the cells were loaded with 50 μM of DAQ, 1 μM of DCFDA and HE (all dilutions were made in growth medium) for 2 h, 37° C. Then the medium containing dyes was removed, the cells were briefly washed with PBS and induced with L-arginine (1 mM), pyocyanin (100 μM) or their combination for 20 min. […] Pretreated cells were induced as described earlier, overlaid with a cover slip and observed under fluorescence microscope.

For data set [13], the system named is HeLa cells. In words: Profiling of ROS induced in HeLa cells by different ROS inducers, DCFDA/HE staining, wide-field fluorescence microscopy (Example 2). The class given is cell-based, Human. Particulars: for ROS types induced (green DCF and orange HE fluorescence): HeLa cells, inducer 1 h 37° C., 0.5 mM pyrogallol, 0.1 mM pyocyanin, 0.1 mM TBHP, FIG. 4A. Here is the method:
For purposes of simplifying the assay description, this example was carried out with only two indicator probes, though analogous procedures were employed as in the case where three fluorophores were utilized. Human cervical carcinoma cell line HeLa was cultured as described in Example 1. The day before the experiment, the cells were seeded in multi-well microscope slides (Gel-Line™, Portsmouth, N.H.) at a density of 2×10^4 cells per well. […] After a brief wash with PBS, the cells were stained with 1 l-1M of DGFDA and HE in culture medium for 30 min, 37° C., washed twice with PBS, overlaid with a cover slip and observed under the fluorescent microscope, using green and orange filters described in the Table 2 (FIG. 4A). To perform specific profiling of ROS/RNS, parallel samples of HeLa cells were pretreated for 30 min with 5 mM NAG (general ROS scavenger, FIG. 4B), 5 mM Tiron (specific superoxide scavenger, FIG. 4C), 10 mM pyruvate (specific peroxide scavenger, FIG. 4D). Pretreated cells were induced as described, overlaid with a cover slip and observed under fluorescent microscope using the same set of filters.

The mark [14] stands for this setting: HeLa cells induced 20 min, L-arginine 1 mM, pyocyanin 100 μM or combination, FIG. 3A.
[15] abbreviates: FIG. 6 middle and bottom panels.
Setting [16] is: HeLa cells pretreated 1 h, cPTIO 20 μM, FIG. 3B.
[17] abbreviates: HeLa cells pretreated with 20 μM ebselen, FIG. 3D.

Like-named read-outs stand apart in the source and are kept apart here.

As for `CNc1ccc2oc(C[C@H]3O[C@@]4(CC[C@H]3C)O[C@H]([C@H](C)C(=O)c3ccc[nH]3)[C@H](C)C[C@H]4C)nc2c1C(=O)O` [A23187], in the data set with HeLa cells [1], the “time after treatment at which DAQ signal (NO) was detectable” value is recorded as 20 min.

For the compound `Nc1ccc(Oc2ccc3c(-c4ccccc4C(=O)O)c4ccc(=O)cc-4oc3c2)cc1` [APF, 2-[6-(4′-amino)phenoxy-3H-xanthen-3-on-9-yl]benzoic acid], the Fluorescence increase in data set [2] is 3600; in data set [3] it was 1200; in data set [4], 1; in data set [5], 560; in data set [6], 9; in data set [7], 2. In addition, the Fluorescence increase in data set [8] is 1; in [9], 6.

On to `Nc1cc2ccccc2cc1N` [DAN, 2,3-diamino naphthalene], for which the “solubility in aqueous solution” value in data set [10] was “poorly soluble”. The cellular toxicity result in the data set with cells is recorded as “high cellular toxicity”.

On to `O=C(O)c1ccccc1-c1c2ccc(=O)cc-2oc2cc(Oc3ccc(O)cc3)ccc12` [HPF, 2-[6-(4′-hydroxyl)phenoxy-3H-xanthen-3-on-9-yl]benzoic acid], for which the Fluorescence increase in data set [2] is listed as 6; in data set [3] it was 730; in data set [4], 6; in data set [5], 120; in data set [6], 5; in [7] it was 17. In addition, the values for the Fluorescence increase in data set [8] and in data set [9] were 2 and 8, respectively.

Turning to `N=C(N)NCCC[C@H](N)C(=O)O` [L-arginine], in the data set with HeLa cells [11], the “NO production (fluorescence of oxidized DAQ product in FL4)” value was “induced NO production”. Moreover, the “NO production (oxidized DAQ fluorescence, Cy5 filter)” value in the data set on HeLa cells [12] (setting [14]) was “extensive NO production”. Moreover, in the data set on HeLa cells [1], the “time after treatment at which DAQ signal (NO) was detectable” value is recorded as 10 min; the “NO levels (DAQ signal)” value is given as “high levels of NO production”; the “ROS production (FIGS. 5B and 5C)” value is given as “No significant ROS production”.

Take `CC(=O)N[C@@H](CS)C(=O)O` [NAG, N-acetyl-L-cysteine]: the “effect of pretreatment on pyocyanin-induced ROS production (FL1 and FL2)” value in the data set on HeLa cells [11] (setting [15]) was “blocked”. Further, the “effect of pretreatment on L-arginine-induced FL4 (NO) signal” value in the data set with HeLa cells [11] is reported as “not”. The “effect of pretreatment on ROS production induced by pyocyanin” value in the data set with HeLa cells [12] (setting [16]) was “attenuated ROS induction”. For the same compound, the “general levels of NO production in pretreated cells” value in the data set with HeLa cells [12] (HeLa cells pretreated with 5 mM NAG, FIG. 3C) is given as “increased”. Further, in the data set on HeLa cells [13] (HeLa cells pretreated 30 min with 5 mM NAG, then inducers, FIG. 4B), the “effect of pretreatment on production of ROS types” value is on record as “abolished the production of all ROS types”.

In the case of `O=C1OC2(c3cc(Cl)c(O)cc3Oc3cc(O)c(Cl)cc32)c2ccccc21` [OCFH, 2′,7′-dichlorofluorescein], the Fluorescence increase was 86 in data set [2]; 7400 in data set [3]; 150 in data set [4]; 6600 in data set [5]; 26 in [6]; 710 in [7]. For the same compound, the Fluorescence increase in data set [8] was 190; in data set [9], 67.

As for `CC(C)(C)OO` [TBHP, tert-butyl hydroperoxide], the “ROS types induced (green DCF and orange HE fluorescence)” value (“ROS types induced” below) with HeLa cells [13] is reported as “majority of peroxide/hydroxyl radicals/peroxynitrite”.

As for `O=S(=O)(O)c1cc(O)c(O)c(S(=O)(=O)O)c1` [Tiron], the “effect of pretreatment on green fluorescence in pyrogallol-treated cells” value in the data set with HeLa cells [13] (HeLa cells pretreated 30 min, 5 mM Tiron or 10 mM pyruvate, FIG. 4C, 4D) is recorded as “green fluorescence was increased”. In the data set on HeLa cells [13] (HeLa cells pretreated 30 min with 5 mM Tiron, then inducers, FIG. 4C), the “effect of pretreatment on orange fluorescence (superoxide)” value is “attenuated only orange fluorescence in all treated cells”.

As to `CC1(C)N([O])C(c2ccc(C(=O)[O-])cc2)=[N+]([O-])C1(C)C.[K+]` [cPTIO, 2-(4-carboxyphenyl)-4,5-dihydro-4,4,5,5-tetramethyl-1H-imidazolyl-1-oxy-3-oxide, potassium salt], in the data set on HeLa cells [11], the “effect of pretreatment on L-arginine-induced FL4 (NO) signal” value is reported as “blocked”. In addition, in the data set on HeLa cells [12] (setting [16]), the “effect of pretreatment on ROS production induced by pyocyanin” value is “did not affect ROS production” and the “effect of pretreatment on NO production upon L-arginine induction” value is on record as “completely abrogated NO production”. Also, the “effect of pretreatment on green fluorescence upon combination treatment with L-arginine and pyocyanin” value with HeLa cells [12] (cPTIO 20 μM, FIG. 3B) is “green fluorescence decreased”.

`O=c1c2ccccc2[se]n1-c1ccccc1` [ebselen, 2-phenyl-1,2-benzisoselenazol-3[2H]-one]: in the data set on HeLa cells [12] (setting [17]), the “effect of pretreatment on levels of NO or superoxide in the combination treated sample” value was “did not restore the original levels of NO or superoxide” and the “effect of pretreatment on peroxynitrite” value is on record as “inactivated peroxynitrite upon its production”. In addition, the “effect of pretreatment on green fluorescence upon combination treatment with L-arginine and pyocyanin” value in the data set on HeLa cells [12] (cPTIO 20 μM, FIG. 3B) is “decreased significantly”.

For the compound `Cn1c2cccc(=O)c-2nc2ccccc21` [pyocyanin], the “ROS production detected in FL1 and FL2 channels” value in the data set on HeLa cells [11] (setting [15]) is reported as “induced significant ROS production”. The “NO production (fluorescence of oxidized DAQ product in FL4)” value in the data set on HeLa cells [11] is listed as “did not induce significant NO production”. In the data set on HeLa cells [12] (setting [14]), the “NO production (oxidized DAQ fluorescence, Cy5 filter)” value was “did not affect NO production” and the “superoxide production (HE fluorescence, orange filter)” value is listed as “induced superoxide production”. The “ROS types induced” value in the data set on HeLa cells [13] is “majority of superoxide”. For the same compound, in the data set on HeLa cells [1], the “NO levels (DAQ signal)” value is “did not induce any DAQ-detectable signal”; the “ROS production (FIGS. 5B and 5C)” value was “early induction of ROS”.

For `Oc1cccc(O)c1O` [pyrogallol], the “ROS types induced” value in the data set on HeLa cells [13] was “induced mostly superoxide production”.

For the compound antimycin A, in the data set on HeLa cells [1], the “NO levels (DAQ signal)” value is given as “did not induce any DAQ-detectable signal”; the “ROS production (FIGS. 5B and 5C)” value is given as “early induction of ROS”.
